The values that follow come from patent publication US8129538B1, “Renin inhibitors” (Takeda Pharmaceutical Company Limited, priority 2007, dated 2012).

The test deals with T1, Recombinant human renin (Homo sapiens, UniProt P00797).
T1 construct: isolate the active form (residues 67-406); made in house
T1 sequence (P00797 67-406): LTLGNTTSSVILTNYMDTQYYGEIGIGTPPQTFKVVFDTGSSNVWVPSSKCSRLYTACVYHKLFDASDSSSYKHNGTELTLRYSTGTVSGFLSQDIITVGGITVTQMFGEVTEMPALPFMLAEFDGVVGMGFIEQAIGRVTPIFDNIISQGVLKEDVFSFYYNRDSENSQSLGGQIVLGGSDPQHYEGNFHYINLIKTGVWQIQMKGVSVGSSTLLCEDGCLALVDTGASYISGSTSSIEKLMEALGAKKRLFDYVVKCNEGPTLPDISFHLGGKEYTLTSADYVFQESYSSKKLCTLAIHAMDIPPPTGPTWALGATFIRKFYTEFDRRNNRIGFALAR
The experiment in a line: In vitro enzymatic activity assay of renin inhibitors (fluorogenic peptide substrate). The format is biochemical. The note with it: recombinant human renin 3 nM, substrate 1 μM, 37° C., pH 7.4, fluorescence; read-out: IC50 of Exemplified Compounds Against Renin. From the text:
Test compounds in varying concentrations may be reacted with recombinant human renin in the presence of substrate, e.g., QXL520-γ-Abu-Ile-His-Pro-Phe-His-Leu-Val-Ile-His-Thr-Lys (HiLyteFluo488)-Arg-OH (Anaspec, San Jose, Calif.). The reaction can be followed kinetically using fluorescence (excitation λ=485 nm; emission λ=538 nm) Inhibition constants (IC50) may be calculated by non-linear curve fitting of the compound concentrations and fluorescence intensities to the standard IC50 equation.
Solutions of test compounds in varying concentrations (≦2 mM final concentration) are prepared in dimethyl sulfoxide (DMSO) and then diluted into assay buffer comprising 50 mM Hepes, 1 mM EDTA, 1 mM DTT, 0.1 mg/mL BSA, 0.01% Brij35, pH 7.4. Alternatively, the assay can be performed with a high BSA concentration, wherein the buffer contains an additional 2% BSA.
Recombinant human renin (3 nM final concentration) is added to the dilutions and pre-incubated with the compounds for 10 minutes at 37° C. As described in Examples A-C above, human renin can be obtained by expressing preprorenin (residue 1-406) in mammalian cells, treating the prorenin (residues 24-406) contained in the culture supernatant with trypsin, and isolate the active form (residues 67-406). After pre-incubation, the reaction is initiated with 1 μM of substrate QXL520-γ-Abu-Ile-His-Pro-Phe-His-Leu-Val-Ile-His-Thr-Lys (HiLyteFluo488)-Arg-OH (Anaspec, San Jose, Calif.). The final DMSO in the assay is 5%. The total volume of the reaction mixture is 20 μL, which can be placed on Greiner 384-well small volume plates.
Renin activity may be determined via fluorescence (excitation λ=485 nm; emission λ=538 nm), e.g., on a Molecular Devices SPECTROmax GEMINI XPS. The fluorescence
intensity is determined upon the addition of substrate and determined again after incubation at 37° C. for one hour. The fluorescence intensity of a blank (no inhibition) using vehicle alone is also determined. Renin activity is linearly proportional to the change in fluorescence observed (final-initial).
The percent inhibition of renin at a given compound concentration is defined as: 100%×[1−(Fcompound/Fblank)] where Fcompound is the observed fluorescence at a given concentration of test compound and Fblank is the observed fluorescence in the presence of vehicle alone.
The pIC50 value (negative log of the molar concentration of the compound that produces 50% inhibition) of a test compound is calculated by non-linear least squares curve fitting of the equation: Percent Inhibition=100%/(1+(10−pIC50/10 log [I])) to percent inhibition versus compound concentration. The 50% inhibitory concentration (IC50) of a test compound is calculated by raising 10 to the negative pIC50 (10-pIC50).
`COc1ccc(C2=C(C(=O)N(Cc3cccc(Cl)c3Cl)C3CC3)[C@@H](CO)NCC2)cc1` [Compound 13, (S)-N-cyclopropyl-N-(2,3-dichlorobenzyl)-2-(hydroxymethyl)-4-(4-methoxyphenyl)-1,2,5,6-tetrahydropyridine-3-carboxamide]: the IC50 is > 1000 nM.

For the compound `O=C(C1=C(c2ccc(OCCOc3c(F)ccc(F)c3Cl)cc2)CCN[C@@H]1CO)N(Cc1cccc(Cl)c1Cl)C1CC1` [Compound 11, (S)-4-(4-(2-(2-chloro-3,6-difluorophenoxy)ethoxy)phenyl)-N-cyclopropyl-N-(2,3-dichlorobenzyl)-2-(hydroxymethyl)-1,2,5,6-tetrahydropyridine-3-carboxamide], the IC50 is < 100 nM.

With `O=C(C1=C(c2cccc(-c3ccccc3)c2)CCNC1CO)N(Cc1cccc(Cl)c1Cl)C1CC1` (stereo not shown) [Compound 1, 4-(biphenyl-3-yl)-N-cyclopropyl-N-(2,3-dichlorobenzyl)-2-(hydroxymethyl)-1,2,5,6-tetrahydropyridine-3-carboxamide], the IC50 was > 1000 nM.

`O=C(C1=C(c2ccc(O)cc2)CCN[C@@H]1CO)N(Cc1cccc(Cl)c1Cl)C1CC1` [Compound 12, (S)-N-cyclopropyl-N-(2,3-dichlorobenzyl)-2-(hydroxymethyl)-4-(4-hydroxyphenyl)-1,2,5,6-tetrahydropyridine-3-carboxamide]: the IC50 is > 1000 nM.

Turning to `COCOC[C@H]1NCCC(c2ccc(OCCOc3c(Cl)cc(C)cc3Cl)cc2)=C1C(=O)N(Cc1cccc(Cl)c1Cl)C1CC1` [Compound 10, (S)-N-cyclopropyl-4-(4-(2-(2,6-dichloro-4-methylphenoxy)ethoxy)phenyl)-N-(2,3-dichlorobenzyl)-2-((methoxymethoxy)methyl)-1,2,5,6-tetrahydropyridine-3-carboxamide], the IC50 is < 100 nM.

For `COCOC[C@H]1NCCC(c2cccc(-c3ccccc3)c2)=C1C(=O)N(Cc1cccc(Cl)c1Cl)C1CC1` [Compound 4, (S)-4-(biphenyl-3-yl)-N-cyclopropyl-N-(2,3-dichlorobenzyl)-2-((methoxymethoxy)methyl)-1,2,5,6-tetrahydropyridine-3-carboxamide], the concentration for half-maximal inhibition (IC50) was in the range of 100 to 1000 nM.

Take `COCOC[C@H]1NCCC(c2ccc(OCCOc3c(Cl)cccc3Cl)cc2)=C1C(=O)N(Cc1cccc(Cl)c1Cl)C1CC1` [Compound 5, (S)-N-cyclopropyl-N-(2,3-dichlorobenzyl)-4-(4-(2-(2,6-dichlorophenoxy)ethoxy)phenyl)-2-((methoxymethoxy)methyl)-1,2,5,6-tetrahydropyridine-3-carboxamide]: the IC50 was < 100 nM.

Take `O=C(C1=C(c2ccc(OCCOc3ccccc3Cl)cc2)CCNC1CO)N(Cc1cccc(Cl)c1Cl)C1CC1` (stereo not shown) [Compound 2, 4-(4-(2-(2-chlorophenoxy)ethoxy)phenyl)-N-cyclopropyl-N-(2,3-dichlorobenzyl)-2-(hydroxymethyl)-1,2,5,6-tetrahydropyridine-3-carboxamide]: the IC50 is > 1000 nM.

`Cc1cccc(C)c1OCCOc1ccc(C2=C(C(=O)N(Cc3cccc(Cl)c3Cl)C3CC3)[C@@H](CO)NCC2)cc1` [Compound 7, (S)-N-cyclopropyl-N-(2,3-dichlorobenzyl)-4-(4-(2-(2,6-dimethylphenoxy)ethoxy)phenyl)-2-(hydroxymethyl)-1,2,5,6-tetrahydropyridine-3-carboxamide]: the IC50 is < 100 nM.

As to `COCOC[C@H]1NCCC(c2ccc(OCCOc3c(C)cccc3C)cc2)=C1C(=O)N(Cc1cccc(Cl)c1Cl)C1CC1` [Compound 8, (S)-N-cyclopropyl-N-(2,3-dichlorobenzyl)-4-(4-(2-(2,6-dimethylphenoxy)ethoxy)phenyl)-2-((methoxymethoxy)methyl)-1,2,5,6-tetrahydropyridine-3-carboxamide], the IC50 is < 100 nM.

Consider `NC[C@H]1NCCC(c2ccc(OCCOc3c(Cl)cccc3Cl)cc2)=C1C(=O)N(Cc1cccc(Cl)c1Cl)C1CC1` [Compound 14, (S)-2-(aminomethyl)-N-cyclopropyl-N-(2,3-dichlorobenzyl)-4-(4-(2-(2,6-dichlorophenoxy)ethoxy)phenyl)-1,2,5,6-tetrahydropyridine-3-carboxamide], for which the IC50 was 100 to 1000 nM.

In the case of `Cc1cc(Cl)c(OCCOc2ccc(C3=C(C(=O)N(Cc4cccc(Cl)c4Cl)C4CC4)[C@@H](CO)NCC3)cc2)c(Cl)c1` [Compound 9, (S)-N-cyclopropyl-4-(4-(2-(2,6-dichloro-4-methylphenoxy)ethoxy)phenyl)-N-(2,3-dichlorobenzyl)-2-(hydroxymethyl)-1,2,5,6-tetrahydropyridine-3-carboxamide], the IC50 is < 100 nM.

As for `O=C(C1=C(c2ccc(OCCOc3c(Cl)cccc3Cl)cc2)CCN[C@@H]1CO)N(Cc1cccc(Cl)c1Cl)C1CC1` [Compound 6, (S)-N-cyclopropyl-N-(2,3-dichlorobenzyl)-4-(4-(2-(2,6-dichlorophenoxy)ethoxy)phenyl)-2-(hydroxymethyl)-1,2,5,6-tetrahydropyridine-3-carboxamide], the IC50 is < 100 nM.
